Data: EP4714949A1, “NOVEL COMPOUNDS CAPABLE OF INDUCING OSTEOGENIC DIFFERENTIATION” (AJOU UNIVERSITY INDUSTRY-ACADEMIC COOPERATION FOUNDATION, priority 2023, dated 2024)

Legend:
[1] = tested on: p53; test: p53 activation in hDPSCs (FIG. 2, compound and concentration selection); assay type: cell-based, Human
[2] = target: T1, MDM2 (Homo sapiens, UniProt Q00987); test: MDM2 protein degradation by Western blot (SDS-PAGE) in hDPSCs; assay type: cell-based; settings: FIG. 2, selection among initially selected compounds
T1 construct: evaluate the intracellular MDM2 protein degradation capacity; endogenous in cells; host or cells: human dental pulp stem cells (hDPSCs)
T1 sequence (Q00987 whole entry): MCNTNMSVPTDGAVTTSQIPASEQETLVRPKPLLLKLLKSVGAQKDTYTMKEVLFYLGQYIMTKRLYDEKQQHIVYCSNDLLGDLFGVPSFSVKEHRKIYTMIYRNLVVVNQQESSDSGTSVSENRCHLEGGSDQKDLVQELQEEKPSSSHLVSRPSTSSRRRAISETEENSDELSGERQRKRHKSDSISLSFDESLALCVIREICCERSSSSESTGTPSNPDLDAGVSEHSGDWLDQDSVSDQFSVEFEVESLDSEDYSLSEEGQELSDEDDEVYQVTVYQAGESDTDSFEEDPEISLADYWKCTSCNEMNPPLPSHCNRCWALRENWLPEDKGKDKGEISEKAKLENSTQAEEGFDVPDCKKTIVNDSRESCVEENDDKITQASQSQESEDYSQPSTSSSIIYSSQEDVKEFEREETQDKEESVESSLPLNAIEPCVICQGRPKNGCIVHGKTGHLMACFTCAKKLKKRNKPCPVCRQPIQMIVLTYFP
Procedure: Human dental pulp stem cell lines (hDPSCs) were treated with 14 types of synthesized MDM2-PROTACs (10 µM) for 1 hour and Western blot analysis using SDS-PAGE gel was performed to evaluate the intracellular MDM2 protein degradation capacity.

SMILES | p53 activation [1] | MDM2 degradation [2]
COc1ccc(C2=NC(c3ccc(Cl)cc3)C(c3ccc(Cl)cc3)N2C(=O)N2CCN(CC(=O)NCCCCCCCCOc3cccc4c3C(=O)N(C3CCC(=O)NC3=O)C4=O)C(=O)C2)c(OC(C)C)c1 (stereo not drawn) [Compound 6b, 2-(4-(cis-4,5-bis(4-chlorophenyl)-2-(2-isopropoxy-4-methoxyphenyl)-4,5-dihydro-1H-imidazole-1-carbonyl)-2-oxopiperazin-1-yl)-N-(8-((2-(2,6-dioxoopiperidin-3-yl)-1,3-dioxoisoindolin-4-yl)oxy)octyl)acetamide] | activate p53 | effectively degrade MDM2
COc1ccc(C2=NC(c3ccc(Cl)cc3)C(c3ccc(Cl)cc3)N2C(=O)N2CCN(CC(=O)NCCCCCCCC#Cc3cccc4c3C(=O)N(C3CCC(=O)NC3=O)C4=O)C(=O)C2)c(OC(C)C)c1 (stereo not drawn) [Compound 16b, 2-(4-(cis-4,5-bis(4-chlorophenyl)-2-(2-isopropoxy-4-methoxyphenyl)-4,5-dihydro-1H-imidazole-1-carbonyl)-2-oxopiperazin-1-yl)-N-(9-(2-(2,6-dioxopiperidin-3-yl)-1,3-dioxoisoindolin-4-yl)non-8-yn-1-yl) acetamide] | activate p53 | effectively degrade MDM2
